According to US20050250784A1 (Miikana Therapeutics Corporation, priority 2004, published 2005):

System: MCF7 cells
Test: Whole cell cytotoxicity assay: Sulforhodamine B
Type: cell-based, Human
Details: compound concentration 100 μM, MCF7 cell growth, 48 hours with drug, SRB staining; for inhibition at 100 µM: Homo sapiens
Protocol: The following procedure can be found on the Developmental Therapeutics Program NCI/NIH web site at http://dtp.nci.nih.gov/brancehes/btb/ivclsp.html.
1. Human tumor cell lines of HT29, A549 and MCF7 are grown in DMEM containing 10% fetal bovine serum and 2 mM L-glutamine. Cells are plated in a 96 well plate at a density of 5000 cells per well in 100 uL of growth medium and incubated at 37° C., 5% CO2, for 24 hours prior to the addition of experimental compounds.
2. Experimental drugs are solubilized in DMSO for a final concentration of 20 mM immediately prior to use. Drugs are further diluted in growth media for a total of nine drug concentrations and a growth control. At the 24 hour time point, one plate of cells is fixed in situ with TCA as a measurement of the cell population at time zero, or the time of drug addition.
3. The plates are further incubated with drug for an additional 48 hours.
4. The cells are fixed in situ by gently aspirating off the culture media and then adding 50 uL of ice cold 10% TCA per well and incubated at 4° C. for 60 minutes. The plates are washed with tap water five times and allowed to air dry for 5 minute.
5. 50 ul of a 0.4% (w/v) Sulforhodamine B solution in 1% (v/v) acetic acid is added per well and incubated for 30 minutes at room temperature.
6. Following staining, plates are washed five times with 1% acetic acid to remove any unbound dye and then allowed to air dry for 5 minutes.
7. Stain is solubilized with 100 uL of 10 mM Tris pH 10.5 per well and placed on an orbital rotator for 5 minutes.
8. Absorbance is read at 570 nm.

2-(4-{4-[(3-(pyrrolidin-1-ylmethyl)-2-furyl]phenylsulfonyl}piperazin-1-yl)-1,3-thiazole-5-carboxylic acid hydroxyamide [Example 283]
% inhibition MCF7 cells @ 100 μM: 98%

2-[4-(naphtha-2-yl-4-sulfonyl)-piperazin-1-yl]-thiazole-5-carboxylic acid hydroxyamide [Example 201]
% inhibition MCF7 cells @ 100 μM: 95%

Cc1ccc(S(=O)(=O)N2CCN(c3ncc(C(=O)NO)s3)CC2)cc1 [Example 204, 2-[4-(4-toluene-4-sulfonyl)-piperazin-1-yl]-thiazole-5-carboxylic acid hydroxyamide]
% inhibition MCF7 cells @ 100 μM: 95.4%

O=C(NO)c1cnc(N2CCN(S(=O)(=O)c3ccc(-c4csc(CN5CCCC5)c4)cc3)CC2)s1 [Example 307, 2-{4-[4-(2-(pyrrolidin-1-ylmethyl)thien-4-yl)phenylsulfonyl]piperazin-1-yl}-1,3-thiazole-5-carboxylic acid hydroxyamide]
inhibition at 100 µM: 99%

CN(C)Cc1ccoc1-c1ccc(S(=O)(=O)N2CCN(c3ncc(C(=O)NO)s3)CC2)cc1 [Example 308, 2-(4-{4-[3-((dimethylamino)-methyl)-2-furyl]phenylsulfonyl}piperazin-1-yl)-1,3-thiazole-5-carboxylic acid hydroxyamide]
inhibition at 100 µM: 99%

O=C(NO)c1cnc(N2CCN(S(=O)(=O)c3ccc(-c4cc(CN5CCCC5)co4)cc3)CC2)s1 [Example 309]
inhibition at 100 µM: 83%

CN(C)Cc1ccsc1-c1ccc(S(=O)(=O)N2CCN(c3ncc(C(=O)NO)s3)CC2)cc1 [Example 310]
inhibition at 100 µM: 98%

CN(CCO)Cc1cccc(-c2ccc(S(=O)(=O)N3CCN(c4ncc(C(=O)NO)s4)CC3)cc2)c1 [Example 311, 2-{4-[3′-{[(2-hydroxyethyl)(methyl)amino]methyl}-1,1′-biphenylsulfonyl]piperazin-1-yl}-1,3-thiazole-5-carboxylic acid hydroxyamide]
inhibition at 100 µM: 98%

O=C(NO)c1cnc(N2CCN(S(=O)(=O)c3ccc(-c4cccc(CN(CCO)CCO)c4)cc3)CC2)s1 [Example 312, 2-{4-[3′-{[bis(2-hydroxyethyl)amino]methyl}-1,1′-biphenylsulfonyl]piperazin-1-yl}-1,3-thiazole-5-carboxylic acid hydroxyamide]
inhibition at 100 µM: 85%

O=C(NO)c1cnc(N2CCN(S(=O)(=O)c3ccc(-c4cccc(CN5CC=CCC5)c4)cc3)CC2)s1 [Example 313, 2-{4-[3′-(3,6-dihydropyridin-1(2H)-ylmethyl)-1,1-biphenylsulfonyl]piperazin-1-yl}-1,3-thiazole-5-carboxylic acid hydroxyamide]
inhibition at 100 µM: 92%

CCCCN(C)Cc1cccc(-c2ccc(S(=O)(=O)N3CCN(c4ncc(C(=O)NO)s4)CC3)cc2)c1 [Example 314, 2-{4-[3′-{[(butyl)(methyl)amino]methyl}-1,1′-biphenylsulfonyl]piperazin-1-yl}-1,3-thiazole-5-carboxylic acid hydroxyamide]
inhibition at 100 µM: 97%

O=C(NO)c1cnc(N2CCN(S(=O)(=O)c3ccc(-c4cccc(CN5CCNCC5)c4)cc3)CC2)s1 [Example 315, 2-{4-[3′-((piperazin-1-yl)methyl)-1,1′-biphenylsulfonyl]piperazin-1-yl}-1,3-thiazole-5-carboxylic acid hydroxyamide]
inhibition at 100 µM: 95%

COCCN(C)Cc1cccc(-c2ccc(S(=O)(=O)N3CCN(c4ncc(C(=O)NO)s4)CC3)cc2)c1 [Example 316, 2-{4-[3′-{[(2-methoxyethyl)(methyl)amino]methyl}-1,1′-biphenylsulfonyl]piperazin-1-yl}-1,3-thiazole-5-carboxylic acid hydroxyamide]
inhibition at 100 µM: 97%

C=CCN(CC=C)Cc1cccc(-c2ccc(S(=O)(=O)N3CCN(c4ncc(C(=O)NO)s4)CC3)cc2)c1 [Example 317]
inhibition at 100 µM: 66%

CNCc1cccc(-c2ccc(S(=O)(=O)N3CCN(c4ncc(C(=O)NO)s4)CC3)cc2)c1 [Example 318, 2-{4-[3′-{[methylamino]methyl}-1,1′-biphenylsulfonyl]piperazin-1-yl}-1,3-thiazole-5-carboxylic acid hydroxyamide]
inhibition at 100 µM: 86%

CC(=O)NCc1cccc(-c2ccc(S(=O)(=O)N3CCN(c4ncc(C(=O)NO)s4)CC3)cc2)c1 [Example 319, 2-{4-[3′-{[N-acetylamino]methyl}-1,1′-biphenylsulfonyl]piperazin-1-yl}-1,3-thiazole-5-carboxylic acid hydroxyamide]
inhibition at 100 µM: 89%

COCc1cccc(-c2ccc(S(=O)(=O)N3CCN(c4ncc(C(=O)NO)s4)CC3)cc2)c1 [Example 320, 2-{4-[3′-{methoxymethyl}-1,1′-biphenylsulfonyl]piperazin-1-yl}-1,3-thiazole-5-carboxylic acid hydroxyamide]
inhibition at 100 µM: 92%

O=C(NO)c1cnc(N2CCN(S(=O)(=O)c3ccc(-c4ccccc4CN4CCCC4)cc3)CC2)s1 [Example 321, 2-{4-[2′-{pyrrolidin-1-ylmethyl}-1,1′-biphenylsulfonyl]piperazin-1-yl]-1,3-thiazole-5-carboxylic acid hydroxyamide]
inhibition at 100 µM: 95%

O=C(NO)c1cnc(N2CCN(S(=O)(=O)c3cccc(OC(F)F)c3)CC2)s1 [Example 323, 2-(4-{[3-(difluoromethoxy)phenyl]sulfonyl}piperazin-1-yl)-1,3-thiazole-5-carboxylic acid hydroxyamide]
inhibition at 100 µM: 100%

Cc1ccc(S(=O)(=O)N2CCN(c3ncc(C(=O)NO)s3)CC2)cc1[N+](=O)[O-] [Example 324, 2-{4-[(4-methyl-3-nitrophenyl)sulfonyl]piperazin-1-yl}-1,3-thiazole-5-carboxylic acid hydroxyamide]
inhibition at 100 µM: 96%

COc1ccc(OC)c(S(=O)(=O)N2CCN(c3ncc(C(=O)NO)s3)CC2)c1 [Example 325, 2-{4-[(2,5-dimethoxyphenyl)sulfonyl]piperazin-1-yl}-1,3-thiazole-5-carboxylic acid hydroxyamide]
inhibition at 100 µM: 98%

Cc1ccc(C)c(S(=O)(=O)N2CCN(c3ncc(C(=O)NO)s3)CC2)c1 [Example 326, 2-{4-[(2,5-dimethylphenyl)sulfonyl]piperazin-1-yl}-1,3-thiazole-5-carboxylic acid hydroxyamide]
inhibition at 100 µM: 98%

Cc1ccc(S(=O)(=O)N2CCN(c3ncc(C(=O)NO)s3)CC2)c(CN2CCCC2)c1 [Example 327, 2-(4-{[2-(pyrrolidin-1-ylmethyl)-4-methylphenyl]sulfonyl}piperazin-1-yl)-1,3-thiazole-5-carboxylic acid hydroxyamide]
inhibition at 100 µM: 92%

O=C(NO)c1cnc(N2CCN(S(=O)(=O)c3ccc(N4CCCC4)c(F)c3)CC2)s1 [Example 328, 2-(4-{[3-fluoro-4-(pyrrolidin-1-yl)phenyl]sulfonyl}piperazin-1-yl)-1,3-thiazole-5-carboxylic acid hydroxyamide]
inhibition at 100 µM: 96%

O=C(NO)c1cnc(N2CCN(S(=O)(=O)c3ccc(N4CCCCC4)cc3)CC2)s1 [Example 329, 2-(4-{[4-(piperidin-1-yl)phenyl]sulfonyl}piperazin-1-yl)-1,3-thiazole-5-carboxylic acid hydroxyamide]
inhibition at 100 µM: 97%

O=C(NO)c1cnc(N2CCN(S(=O)(=O)c3ccc(N4CCOCC4)cc3)CC2)s1 [Example 330, 2-(4-{[4-(morpholin-4-yl)phenyl]sulfonyl}piperazin-1-yl)-1,3-thiazole-5-carboxylic acid hydroxyamide]
inhibition at 100 µM: 91%
